What was measured:
GlyR = details: full agonist, maximal current responses; cited from earlier work
α1-GFP GlyR = biological target: T1, α1-GFP GlyR (Homo sapiens, UniProt P23415); test: MST of α1-GFP GlyR SMA-copolymer nanodiscs (total solubilized membranes) from X. laevis oocytes; assay type: binding; details: mean ± SEM, read-out: cEC50 (MST)
T1 construct: made in house; host or cells: Xenopus laevis oocytes injected with cRNA; total solubilized membranes in SMA nanodiscs
T1 sequence (P23415 29-457): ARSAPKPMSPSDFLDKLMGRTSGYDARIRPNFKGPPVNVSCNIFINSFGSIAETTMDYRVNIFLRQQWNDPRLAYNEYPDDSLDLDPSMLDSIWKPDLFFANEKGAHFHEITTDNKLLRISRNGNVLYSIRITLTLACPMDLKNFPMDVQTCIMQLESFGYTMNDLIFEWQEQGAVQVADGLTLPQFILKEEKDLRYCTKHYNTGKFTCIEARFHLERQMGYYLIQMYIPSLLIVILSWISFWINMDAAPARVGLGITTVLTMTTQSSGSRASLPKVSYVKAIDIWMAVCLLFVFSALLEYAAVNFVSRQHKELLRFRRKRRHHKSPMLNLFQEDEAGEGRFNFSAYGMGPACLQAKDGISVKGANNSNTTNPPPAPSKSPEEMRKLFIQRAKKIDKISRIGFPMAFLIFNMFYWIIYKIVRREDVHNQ
Procedure: cRNA was synthesized using the AmpliCap-Max T7 High Yield Message Maker Kit (Cellscript, Madison, WI, USA). Therefore GFP-GlyR α1 in pCDNA3.1(+) was linearized with NotI. Oozytes were surgically taken from female X. laevis after anesthesia with 0.1% Tricaine in water. For SMA-copolymer solubilization, 300–400 oocytes were injected with 50 ng in a volume of 50.6 nl of cRNA. After injection the oocytes were incubated in ND-96 solution (96 mM NaCl, 2 mM KCl, 1 mM CaCl2, 1 mM MgCl2, 5 mM HEPES, pH 7.4) at 18 °C for 1–2 days.

α1 GlyR = biological target: T2, α1 GlyR (Homo sapiens, UniProt P23415); test: Two-electrode voltage-clamp whole-cell current recordings in X. laevis oocytes expressing α1 GlyR; assay type: cell-based
T2 construct: GFP (N); expressed in transfected cells; host or cells: Xenopus laevis oocytes (cRNA injection)
T2 sequence (P23415 29-457): T1 sequence (P23415 29-457)

EC50 (α1-GFP GlyR) [µM]	EC50 (α1 GlyR; α1 GlyR expressed in X. laevis oocytes, clamped at −70 mV, mean ± SEM, read-out: aEC50 (electrophysiology)) [µM]	maximal current compared to glycine (α1 GlyR; α1 GlyR in X. laevis oocytes, normalized to maximum glycine currents, n = 3) [%]	SMILES	opening times in single-channel recordings (GlyR)
			NCC(=O)O [glycine]	95–98%
474 ± 66.1	843 ± 16	61	NCCS(=O)(=O)O [taurine]	

From paper PMC7538598 (Scientific Reports, 2020)
